In ChEMBL document CHEMBL5465560, “Selectivity Literature for EUbOPEN Chemogenomic Library” (2024):

Legend:
[1] = target: T1, Interleukin-1 receptor-associated kinase 4 (Homo sapiens) (UniProt Q9NWZ3); assay: Selectivity interaction (KinomeScan (DiscoverX)) EUB0001550a IRAK4; details: at 1 µM
T1 sequence (whole entry): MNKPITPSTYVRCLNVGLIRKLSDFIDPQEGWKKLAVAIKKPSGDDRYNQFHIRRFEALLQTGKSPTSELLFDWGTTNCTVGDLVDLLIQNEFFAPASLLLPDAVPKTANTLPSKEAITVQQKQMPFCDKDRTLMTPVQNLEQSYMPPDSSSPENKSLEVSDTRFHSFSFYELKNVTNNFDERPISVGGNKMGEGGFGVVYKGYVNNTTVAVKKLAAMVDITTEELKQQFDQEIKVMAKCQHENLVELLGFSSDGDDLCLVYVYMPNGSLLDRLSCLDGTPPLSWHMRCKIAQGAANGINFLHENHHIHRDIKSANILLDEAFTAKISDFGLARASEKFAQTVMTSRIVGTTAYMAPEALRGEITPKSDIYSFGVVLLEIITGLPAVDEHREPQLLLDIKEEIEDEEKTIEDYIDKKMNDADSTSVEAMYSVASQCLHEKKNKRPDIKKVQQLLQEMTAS

[2] = target: T2, Eukaryotic elongation factor 2 kinase (Homo sapiens) (UniProt O00418); assay: Selectivity interaction (Kinase panel (Invitrogen)) EUB0000639a EEF2K; details: at 200 nM
T2 sequence (whole entry): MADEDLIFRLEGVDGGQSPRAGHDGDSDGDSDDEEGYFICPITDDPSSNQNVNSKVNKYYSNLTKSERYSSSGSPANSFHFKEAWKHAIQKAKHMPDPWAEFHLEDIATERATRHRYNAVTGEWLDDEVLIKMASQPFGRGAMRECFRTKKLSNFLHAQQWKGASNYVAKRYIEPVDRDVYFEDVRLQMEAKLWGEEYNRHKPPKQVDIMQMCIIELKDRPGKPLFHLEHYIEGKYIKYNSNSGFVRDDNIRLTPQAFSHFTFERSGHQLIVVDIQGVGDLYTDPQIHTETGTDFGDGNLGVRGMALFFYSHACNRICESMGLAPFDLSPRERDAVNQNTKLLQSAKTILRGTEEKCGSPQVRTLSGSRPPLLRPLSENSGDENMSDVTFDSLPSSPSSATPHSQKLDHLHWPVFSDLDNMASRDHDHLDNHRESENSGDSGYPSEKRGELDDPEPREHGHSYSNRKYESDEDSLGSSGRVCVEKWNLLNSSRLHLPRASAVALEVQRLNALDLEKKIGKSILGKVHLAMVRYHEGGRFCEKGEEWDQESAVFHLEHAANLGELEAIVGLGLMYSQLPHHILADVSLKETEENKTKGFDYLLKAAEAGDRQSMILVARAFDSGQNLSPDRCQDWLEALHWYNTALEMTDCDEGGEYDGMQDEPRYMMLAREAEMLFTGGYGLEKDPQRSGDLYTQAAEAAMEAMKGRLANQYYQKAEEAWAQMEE

[3] = target: Ribosomal protein S6 kinase alpha-3 (Homo sapiens, UniProt P51812); assay: Selectivity interaction (ActivX KiNativ screen (kinase selectivity in THP-1 cell lysates)) EUB0000639a RPS6KA3; format: subcellular; details: lysate, at 0.04 µM
[4] = target: Ephrin type-A receptor 5 (Homo sapiens) (UniProt P54756); assay: Selectivity interaction (KinomeScan (DiscoverX)) EUB0000045b EPHA5
[5] = target: Serine/threonine-protein kinase PAK 1 (Homo sapiens) (UniProt Q13153); assay: Selectivity interaction (KinomeScan (DiscoverX)) EUB0000045b PAK1
[6] = target: Macrophage colony-stimulating factor 1 receptor (Homo sapiens) (UniProt P07333); assay: Selectivity interaction (KinomeScan (DiscoverX)) EUB0000618a CSF1R; details: at 10 µM
[7] = target: Mitogen-activated protein kinase kinase kinase 4 (Homo sapiens) (UniProt Q9Y6R4); assay: Selectivity interaction (KinomeScan (DiscoverX)) EUB0001619a MAP3K4; details: at 1 µM
[8] = target: cAMP-dependent protein kinase catalytic subunit alpha (Homo sapiens, UniProt P17612); assay: Selectivity interaction (Upstate Kinase Profiler service (Millipore)) EUB0000056c PRKACA; details: at 1 µM
[9] = target: T3, Membrane-associated tyrosine- and threonine-specific cdc2-inhibitory kinase (Homo sapiens) (UniProt Q99640); assay: Selectivity interaction (KinomeScan (DiscoverX)) EUB0000655a PKMYT1; details: at 10 µM
T3 sequence (whole entry): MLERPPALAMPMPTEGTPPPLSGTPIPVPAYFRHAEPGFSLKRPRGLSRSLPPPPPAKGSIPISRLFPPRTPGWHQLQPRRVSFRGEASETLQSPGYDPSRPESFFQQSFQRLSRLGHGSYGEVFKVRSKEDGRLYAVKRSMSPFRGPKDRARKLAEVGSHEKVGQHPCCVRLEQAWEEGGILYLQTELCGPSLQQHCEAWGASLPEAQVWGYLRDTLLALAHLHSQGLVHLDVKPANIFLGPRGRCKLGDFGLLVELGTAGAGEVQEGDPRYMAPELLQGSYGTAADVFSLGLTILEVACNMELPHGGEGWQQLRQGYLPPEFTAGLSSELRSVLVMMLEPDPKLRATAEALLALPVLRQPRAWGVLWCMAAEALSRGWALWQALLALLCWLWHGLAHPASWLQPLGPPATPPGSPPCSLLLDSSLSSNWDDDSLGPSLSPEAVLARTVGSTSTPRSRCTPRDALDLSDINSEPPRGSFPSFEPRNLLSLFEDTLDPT

[10] = target: Tyrosine-protein kinase Srms (Homo sapiens) (UniProt Q9H3Y6); assay: Selectivity interaction (SelectScreen profiling (Invitrogen)) EUB0000607a SRMS; details: at 2 µM
[11] = target: Serine/threonine-protein kinase MRCK alpha (Homo sapiens) (UniProt Q5VT25); assay: Selectivity interaction (Kinase panel (Z-LYTE Assay)) EUB0001632a CDC42BPA; details: at 10 µM
[12] = target: T4, Casein kinase I isoform alpha-like (Homo sapiens) (UniProt Q8N752); assay: Selectivity interaction (Kinase panel (Z-LYTE Assay)) EUB0001632a CSNK1A1L; details: at 10 µM
T4 sequence (whole entry): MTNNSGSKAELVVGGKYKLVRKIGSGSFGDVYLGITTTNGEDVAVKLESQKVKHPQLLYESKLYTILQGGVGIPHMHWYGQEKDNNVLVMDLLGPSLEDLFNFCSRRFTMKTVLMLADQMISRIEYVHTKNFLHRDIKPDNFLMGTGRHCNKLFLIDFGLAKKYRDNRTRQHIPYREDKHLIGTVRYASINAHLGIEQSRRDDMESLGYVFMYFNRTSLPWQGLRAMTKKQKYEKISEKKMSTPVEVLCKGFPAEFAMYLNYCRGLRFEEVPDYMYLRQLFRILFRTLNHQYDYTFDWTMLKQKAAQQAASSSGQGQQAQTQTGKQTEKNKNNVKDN

Sequence of Ephrin type-A receptor 5 (Homo sapiens) (P54756 whole entry): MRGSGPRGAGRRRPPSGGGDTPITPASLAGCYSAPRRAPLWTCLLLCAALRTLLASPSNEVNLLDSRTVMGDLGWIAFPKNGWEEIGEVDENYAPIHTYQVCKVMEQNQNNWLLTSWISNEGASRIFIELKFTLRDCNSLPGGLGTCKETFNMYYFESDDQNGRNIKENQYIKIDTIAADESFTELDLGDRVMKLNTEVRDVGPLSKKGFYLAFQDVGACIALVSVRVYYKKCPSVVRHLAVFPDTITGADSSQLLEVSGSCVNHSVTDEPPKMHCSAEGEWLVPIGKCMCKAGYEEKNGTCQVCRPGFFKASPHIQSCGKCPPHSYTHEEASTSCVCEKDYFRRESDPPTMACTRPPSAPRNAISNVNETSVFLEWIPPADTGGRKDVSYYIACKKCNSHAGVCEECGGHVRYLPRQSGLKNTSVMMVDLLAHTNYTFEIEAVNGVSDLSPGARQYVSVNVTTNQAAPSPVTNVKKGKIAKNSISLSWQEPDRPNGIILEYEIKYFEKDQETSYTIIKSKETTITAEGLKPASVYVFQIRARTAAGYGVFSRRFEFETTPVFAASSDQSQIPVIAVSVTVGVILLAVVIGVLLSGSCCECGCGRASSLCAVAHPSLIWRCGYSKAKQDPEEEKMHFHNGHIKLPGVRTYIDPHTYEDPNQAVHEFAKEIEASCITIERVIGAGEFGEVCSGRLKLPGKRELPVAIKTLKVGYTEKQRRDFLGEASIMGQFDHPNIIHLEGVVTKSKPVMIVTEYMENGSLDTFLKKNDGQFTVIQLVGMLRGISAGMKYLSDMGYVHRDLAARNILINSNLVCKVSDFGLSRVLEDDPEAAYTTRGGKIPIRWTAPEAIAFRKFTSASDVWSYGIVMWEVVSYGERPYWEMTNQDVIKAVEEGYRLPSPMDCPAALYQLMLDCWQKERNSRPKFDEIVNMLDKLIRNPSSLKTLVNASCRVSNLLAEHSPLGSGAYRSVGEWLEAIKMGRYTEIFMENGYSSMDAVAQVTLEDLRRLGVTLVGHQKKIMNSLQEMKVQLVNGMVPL
Sequence of Serine/threonine-protein kinase PAK 1 (Homo sapiens) (Q13153 whole entry): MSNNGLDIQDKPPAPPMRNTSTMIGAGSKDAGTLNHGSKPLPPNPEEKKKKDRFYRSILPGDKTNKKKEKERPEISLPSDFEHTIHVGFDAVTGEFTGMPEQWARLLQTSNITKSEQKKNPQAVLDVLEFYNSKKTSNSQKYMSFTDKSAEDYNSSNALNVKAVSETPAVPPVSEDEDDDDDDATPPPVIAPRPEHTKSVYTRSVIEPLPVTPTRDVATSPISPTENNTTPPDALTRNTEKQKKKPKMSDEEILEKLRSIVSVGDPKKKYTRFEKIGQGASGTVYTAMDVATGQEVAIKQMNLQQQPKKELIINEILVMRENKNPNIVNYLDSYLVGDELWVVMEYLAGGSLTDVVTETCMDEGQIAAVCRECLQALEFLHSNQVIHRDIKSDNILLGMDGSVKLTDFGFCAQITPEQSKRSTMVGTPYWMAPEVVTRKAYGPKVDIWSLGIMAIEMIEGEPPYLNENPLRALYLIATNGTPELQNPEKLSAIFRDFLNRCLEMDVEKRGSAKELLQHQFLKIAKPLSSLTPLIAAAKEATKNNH
Sequence of Serine/threonine-protein kinase MRCK alpha (Homo sapiens) (Q5VT25 whole entry, canonical isoform): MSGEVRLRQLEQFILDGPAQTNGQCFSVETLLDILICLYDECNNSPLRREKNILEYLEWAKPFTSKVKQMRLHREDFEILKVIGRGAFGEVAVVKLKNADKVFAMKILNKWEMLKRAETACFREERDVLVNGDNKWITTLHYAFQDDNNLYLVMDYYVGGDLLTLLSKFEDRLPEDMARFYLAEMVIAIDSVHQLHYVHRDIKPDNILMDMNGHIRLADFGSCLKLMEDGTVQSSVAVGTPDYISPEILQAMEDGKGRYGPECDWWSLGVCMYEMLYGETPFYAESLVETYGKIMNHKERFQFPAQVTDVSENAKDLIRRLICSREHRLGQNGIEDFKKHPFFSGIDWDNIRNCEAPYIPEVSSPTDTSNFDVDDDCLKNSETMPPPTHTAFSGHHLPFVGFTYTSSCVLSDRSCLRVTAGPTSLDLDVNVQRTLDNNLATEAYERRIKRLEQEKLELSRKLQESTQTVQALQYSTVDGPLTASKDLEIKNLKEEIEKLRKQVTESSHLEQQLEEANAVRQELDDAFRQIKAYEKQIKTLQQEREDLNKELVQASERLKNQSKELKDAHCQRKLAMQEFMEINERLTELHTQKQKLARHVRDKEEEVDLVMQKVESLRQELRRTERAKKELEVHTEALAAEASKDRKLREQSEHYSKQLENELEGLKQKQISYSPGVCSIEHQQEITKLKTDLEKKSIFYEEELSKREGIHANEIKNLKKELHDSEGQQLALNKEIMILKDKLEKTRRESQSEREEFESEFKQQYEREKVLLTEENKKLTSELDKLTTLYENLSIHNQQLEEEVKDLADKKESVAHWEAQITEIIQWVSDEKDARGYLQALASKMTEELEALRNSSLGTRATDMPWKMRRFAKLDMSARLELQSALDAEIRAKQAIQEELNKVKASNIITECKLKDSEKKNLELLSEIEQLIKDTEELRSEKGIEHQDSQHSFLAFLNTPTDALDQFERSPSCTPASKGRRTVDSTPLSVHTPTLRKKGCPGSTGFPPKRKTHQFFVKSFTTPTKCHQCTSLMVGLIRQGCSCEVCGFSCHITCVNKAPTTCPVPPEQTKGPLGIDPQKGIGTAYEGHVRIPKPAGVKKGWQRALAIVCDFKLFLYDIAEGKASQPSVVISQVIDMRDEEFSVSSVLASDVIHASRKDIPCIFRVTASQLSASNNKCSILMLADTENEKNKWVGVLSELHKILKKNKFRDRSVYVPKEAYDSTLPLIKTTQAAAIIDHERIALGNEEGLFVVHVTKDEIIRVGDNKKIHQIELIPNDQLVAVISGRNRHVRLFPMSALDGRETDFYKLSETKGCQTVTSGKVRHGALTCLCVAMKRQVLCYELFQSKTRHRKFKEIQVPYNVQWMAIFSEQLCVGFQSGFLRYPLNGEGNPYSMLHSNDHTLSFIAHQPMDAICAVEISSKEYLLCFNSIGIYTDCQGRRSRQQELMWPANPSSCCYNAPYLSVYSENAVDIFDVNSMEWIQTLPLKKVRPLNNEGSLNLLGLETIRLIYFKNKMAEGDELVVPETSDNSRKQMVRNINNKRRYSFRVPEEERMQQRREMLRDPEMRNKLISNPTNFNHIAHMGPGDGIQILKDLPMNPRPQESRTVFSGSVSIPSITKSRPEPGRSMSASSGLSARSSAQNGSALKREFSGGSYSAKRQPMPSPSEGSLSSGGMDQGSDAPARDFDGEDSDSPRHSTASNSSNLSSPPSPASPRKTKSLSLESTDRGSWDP
Sequence of Ribosomal protein S6 kinase alpha-3 (P51812 whole entry): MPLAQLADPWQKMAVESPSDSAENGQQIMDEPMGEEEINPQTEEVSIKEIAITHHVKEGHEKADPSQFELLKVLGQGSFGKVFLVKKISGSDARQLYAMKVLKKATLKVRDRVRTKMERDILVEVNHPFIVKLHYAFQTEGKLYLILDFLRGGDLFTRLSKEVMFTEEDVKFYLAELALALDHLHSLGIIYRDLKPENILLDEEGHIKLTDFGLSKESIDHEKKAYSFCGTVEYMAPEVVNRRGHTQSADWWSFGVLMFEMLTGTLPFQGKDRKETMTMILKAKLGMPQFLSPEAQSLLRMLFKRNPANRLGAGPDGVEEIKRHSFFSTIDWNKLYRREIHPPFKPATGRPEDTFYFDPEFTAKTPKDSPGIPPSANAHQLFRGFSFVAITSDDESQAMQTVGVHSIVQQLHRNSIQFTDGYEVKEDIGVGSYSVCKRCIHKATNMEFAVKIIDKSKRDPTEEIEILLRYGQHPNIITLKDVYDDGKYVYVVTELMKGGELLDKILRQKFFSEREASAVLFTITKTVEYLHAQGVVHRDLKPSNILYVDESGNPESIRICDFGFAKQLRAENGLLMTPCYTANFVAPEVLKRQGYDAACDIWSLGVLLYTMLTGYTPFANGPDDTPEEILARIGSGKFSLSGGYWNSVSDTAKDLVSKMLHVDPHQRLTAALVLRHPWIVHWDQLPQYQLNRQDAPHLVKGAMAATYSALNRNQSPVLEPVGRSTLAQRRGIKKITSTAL
Sequence of Tyrosine-protein kinase Srms (Homo sapiens) (Q9H3Y6 whole entry): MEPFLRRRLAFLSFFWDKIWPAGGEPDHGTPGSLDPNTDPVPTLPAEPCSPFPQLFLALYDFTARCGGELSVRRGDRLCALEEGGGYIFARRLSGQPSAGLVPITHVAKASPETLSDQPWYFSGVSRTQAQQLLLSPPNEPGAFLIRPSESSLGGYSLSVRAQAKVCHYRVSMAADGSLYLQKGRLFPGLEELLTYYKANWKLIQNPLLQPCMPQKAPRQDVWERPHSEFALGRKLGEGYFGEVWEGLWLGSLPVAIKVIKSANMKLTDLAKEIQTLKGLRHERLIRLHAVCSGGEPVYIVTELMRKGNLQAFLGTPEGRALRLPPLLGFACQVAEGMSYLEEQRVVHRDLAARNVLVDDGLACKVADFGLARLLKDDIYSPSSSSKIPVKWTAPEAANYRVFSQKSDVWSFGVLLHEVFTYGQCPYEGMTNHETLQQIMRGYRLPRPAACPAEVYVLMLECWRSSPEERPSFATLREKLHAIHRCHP

Structure (SMILES): CN(C)CC#Cc1ccc2[nH]c3c(c2c1)-c1nc(N)ncc1CCC3
- % of control [1]: 21%

Structure (SMILES): CC[C@@H]1[C@H](F)C(=O)N[C@@H]1COc1nccc2cc(C(N)=O)c(OC)cc12 [ZIMLOVISERTIB]
- % of inhibition [2]: 21.1%
- % of inhibition [3]: 2.8%

Structure (SMILES): C=CC(=O)Nc1cc(-n2c(=O)ccc3cnc4ccc(-c5ccc(NS(C)(=O)=O)cc5)cc4c32)ccc1C
- % of control ([4]; at 1 µM): 100%
- % of control ([4]; at 10 µM): 97%
- % of control ([5]; at 1 µM): 86%
- % of control ([5]; at 10 µM): 62%

Structure (SMILES): O[C@H]1CC[C@H](Nc2ncc3nc(Nc4c(F)cc(F)cc4F)n([C@H]4CCOC4)c3n2)CC1
- % of control [6]: 64%

Structure (SMILES): N#Cc1cccc(-c2c[nH]c3ncnc(N4CCOCC4)c23)c1
- % of control [7]: 100%

Structure (SMILES): Cc1ccc(-c2ccc3c(ccc4sc5c(c43)NC[C@@H](C)NC5=O)n2)cn1
- % of inhibition [8]: 14%

Structure (SMILES): CN(C)CCOc1ccc(-c2nc(-c3ccncc3)c(-c3ccc4c(c3)CC/C4=N\O)[nH]2)cc1
- % of control [9]: 100%

Structure (SMILES): CNC(=O)Nc1ccc(-c2nc(N3CC4CCC(C3)O4)c3cnn(C4CCC5(CC4)OCCO5)c3n2)cc1
- % of inhibition [10]: 7%

Structure (SMILES): Cn1cc(-n2cnc3c(NCc4nc5cc(Cl)c(Cl)cc5[nH]4)nc(N4CCOCC4)nc32)cn1
- % of control [11]: -5.27%
- % of control [12]: -0.03%
